Laboratory results: patent US20140024716A1, “Composition Comprising S-Allyl-L-Cysteine as Active Ingredient for Preventing or Treating Gastrointestinal Disorders” (PHARMAKING CO., LTD., priority 2009, published 2014)
“Also recorded” adds a separate entry of the source.

What was measured:
TNF-α = assay: Serum TNF-α in Helicobacter pylori-infected mice; format: in vivo, C57BL/6 mice; conditions: SAC1 and SAC2 groups (200 and 400 mg/kg SAC), p<0.09
Experimental: (§1) 8-week old male C57BL/6 mice were classified into 4 groups, i.e., a positive control group (to which Helicobacter pylori was administered; PC), a negative control group (to which saline was administered; NC), experimental group 1 (to which Helicobacter pylori and 200 mg/kg of SAC were administered; SAC1), and experimental group 2 (to which Helicobacter pylori and 400 mg/kg of SAC were administered; SAC2). Each group had 10 mice. White powdered SAC was diluted in tap water to concentrations of 20 mg/mL and 40 mg/mL and 10 μl/g (body weight) of the diluted SAC was orally administered to the mice of the SAC1 and SAC2 groups three times a week for 10 weeks. The mice were given free access to tap water for the entire test period. The Helicobacter pylori was collected with saline to a concentration of 1×10^9 CFU/mL, and 0.2 mL of the diluted Helicobacter pylori was orally administered to each mouse for 8 weeks from 2 weeks after SAC administration. […]
In order to observe the effect of SAC on an inflammation factor of TNF-α in serum, a commercially available mouse TNF-α antibody analysis kit Microplate (R&D systems Inc., USA) was used and concentrations of TNF-α in serum of mice were measured according to the manuals of the kit.

Helicobacter pylori = assay: Serologic parameters (GOT, GPT) in Helicobacter pylori-infected mouse model; format: in vivo, C57BL/6 mice; conditions: SAC1 and SAC2 groups
Experimental: as §1, with “administration. The mice were fasted for 8 hours before the infection, and 0.15 mL of 0.2 M sodium bicarbonate (NaHCO3) was administered to each mouse 10 minutes before the administration of Helicobacter pylori in order to neutralize acidified stomach due to the fasting. The same amount of saline instead of the infectious substances was administered into the NC group. The mice of all groups were fed with a normal diet.” for “administration.”

Cu/Zn-SOD = assay: Serum Cu/Zn-SOD level in Helicobacter pylori infection model; format: in vivo, C57BL/6 mice; conditions: for Cu/Zn-SOD level greater than that of the PC group by: serum
Experimental: 8-week old male C57BL/6 mice were classified into 4 groups, i.e., a positive control group (to which Helicobacter pylori was administered; PC), a negative control group (to which saline was administered; NC), experimental group 1 (to which Helicobacter pylori and 200 mg/kg of SAC were administered; SAC1), and experimental group 2 (to which Helicobacter pylori and 400 mg/kg of SAC were administered; SAC2). Each group had 10 mice. White powdered SAC was diluted in tap water to concentrations of 20 mg/mL and 40 mg/mL and 10 μl/g (body weight) of the diluted SAC was orally administered to the mice of the SAC1 and SAC2 groups three times a week for 10 weeks. The mice were given free access to tap water for the entire test period. The Helicobacter pylori was collected with saline to a concentration of 1×10^9 CFU/mL, and 0.2 mL of the diluted Helicobacter pylori was orally administered to each mouse for 8 weeks from 2 weeks after SAC administration. The mice were fasted for 8 hours before the infection, and 0.15 mL of 0.2 M sodium bicarbonate (NaHCO3) was administered to each mouse 10 minutes before the administration of Helicobacter pylori in order to neutralize acidified stomach due to the fasting. The same amount of saline instead of the infectious substances was administered into the NC group. The mice of all groups were fed with a normal diet. After a 10-week test period, autopsies were performed on all mice, and samples of blood and internal organs were collected for tissue pathological analyses. The test was performed according to the process of FIG. 19.
In this regard, a superoxide dismutase activity assay kit (BioVision, Mountain View, Calif., USA) was used. 20 μl of serum and 200 μl of a WST working solution as a substrate were mixed. 20 μl of an enzyme working solution was added thereto, and the mixture was maintained at 37° C. for 20 minutes. Absorbance was measured at 450 nm. A control reaction was conducted in the same manner as described above, except that 20 μl of distilled water was added thereto instead of serum. SOD activity (inhibition rate %) was calculated.

[1] = system: gastric lesions of rats induced by hydrochloric acid-ethanol; assay: Hydrochloric acid-ethanol-induced gastric lesion animal model; format: in vivo, Sprague-Dawley rats; conditions: for lengths of gastric lesions: 1 h before HCl-ethanol; for lengths of gastric lesions / gastric lesion inhibiting rate (%): p<0.01
Description: SAC was purchased from TCI Chemical Co. (Tokyo, Japan). Sterile water for injection (Model No. 73H5F21, Dae Han Pharmaceutical Co. Ltd.) was used as a vehicle, and Stillen® was used as a positive control material. 0.5% CMC-Na and sterile water for injection were used as excipients for Stillen®. Hydrochloric acid was purchased from Samjung Chemical, Co., ethanol was purchased from Baker, Co., aspirin was purchased from Sigma, Co., and indomethacin was purchased from Sigma, Co.
(§2) 7 to 8-week old male specific pathogen free (SPF) HsdKoat:Sprague-Dawley®™ SD®™rats (weight of 7-week old males was in the range of 208.44 to 227.39 g, and weight of 8-week old maleswas in the range of 223.85 to 245.03 g, purchased from Koatech, Co. Ltd., Gyunggido, Korea) were quarantined and acclimated in the Animal Lab for 7 days. The rats were bred at a temperature of 23 3° C., at a relative humidity of 55 15%, with light for 12 hours (light turned on at 08:00 and light turned off at 20:00) while air was ventilated 10 to 20 times/hr in the Animal Experiment Lab of Gyeonggi Bio-Center. Other environments for breeding which might influence the test for the entire test period were not considered for use. The rats were given free access to a solid laboratory diet (Harlan Co. Ltd., USA. Teklad certified global 18% protein rodent diet, 2918C) that was supplied by Folas International. […] The rats were given free access to tap water that was sterilized using a UV sterilizer and a micro filter with water bottles.
The rats were classified into a vehicle control group G1 to which only a vehicle was administered, a experimental group G2 to which 100 mg/kg of SAC was administered, a experimental group G3 to which 200 mg/kg of SAC was administered, a experimental group G4 to which 400 mg/kg of SAC was administered, and a positive control group G5 to which 100 mg/kg of Stillen® (55.6 mg/kg as an active ingredient) as a positive control material were administered. Each group included 8 rats in a hydrochloric acid-ethanol-induced animal model (Experiment Example 7) and included 6 rats in an aspirin-induced animal model (Experimental Example 8) and in an indomethacin-induced animal model (Experimental Example 9).
The test substance was directly administered to the stomach using an injection tube equipped with a sonde for oral administration in a single dose once per day.
The test substances were administered. After one hour, 1.5 ml of 150 mM HCl in 60% ethanol was orally administered to each rat. The rats to which ethanol and SAC were administered were fasted without water in stainless steel breeding cages for 1 hour. After one hour from the hydrochloric acid-ethanol administration, the rats were sacrificed under anesthesia using ether and their stomachs including parts of the duodenum and esophagus were isolated. The insides of the stomachs were immediately washed with 13 ml of a 2% neutral buffered formalin, and the duodenum and esophagus parts were fixed with forceps. Then, 13 ml of the 2% neutral buffered formalin was added thereto and maintained for 5 minutes for fixation. The greater curvature of each stomach was incised, fixed to a dissection table, and unfolded to measure the lengths of gastric lesions using vernier calipers. Photographs of the unfolded stomachs were taken (FIG. 12) and the stomachs were fixed with a 10% neutral buffered formalin. […]

[2] = General observation (death, weight) of rats in gastric lesion tests; format: in vivo, Sprague-Dawley rats
Experimental: as §2, with “bottles. […]” for “bottles.”

## C=CCSC[C@H](N)C(=O)O [SAC, S-allyl-L-cysteine]
TNF-α
  serum TNF-α versus PC group: reduced; also recorded: less than that of the PC group
Helicobacter pylori; not significantly different
  serum GPT level versus PC group: less than that of the PC group; also recorded: less than the positive control group
Helicobacter pylori; not significantly different (p<0.08)
  serum GOT level versus PC group: less than that of the PC group; also recorded: less than the positive control group
Cu/Zn-SOD; SAC1 group (200 mg/kg SAC)
  Cu/Zn-SOD level greater than that of the PC group by: about 4%
Cu/Zn-SOD; SAC2 group (400 mg/kg SAC)
  Cu/Zn-SOD level greater than that of the PC group by: about 3%
Cu/Zn-SOD; SAC-administered experimental group, dose not stated
  serum Cu/Zn-SOD level versus positive control group: higher than that of the positive control group
[1]; 200 mg/kg SAC oral, vehicle 209.60±28.39 mm
  lengths of gastric lesions: 106.65±16.70 mm
[1]; 200 mg/kg SAC
  gastric lesion inhibiting rate (%): 41.12±7.97%
[1]; 400 mg/kg SAC oral
  lengths of gastric lesions: 72.25±19.33 mm
[1]; 400 mg/kg SAC
  gastric lesion inhibiting rate (%): 65.53±9.22%
[1]; highest rate over SAC doses
  gastric lesion inhibiting rate (%) up to: about 66%
[2]; 100, 200, 400 mg/kg SAC oral single dose, rats
  death and other changes: No animals died and no other changes were observed
[2]; 100, 200, 400 mg/kg SAC oral, entire test period
  significant weight change with respect to administration: not observed
